Experiments:
[1] = system: HuH-7 (hepatocellular carcinoma); test: cells; conditions: Homo sapiens, Huh-7, read-out: Cell viability (%) HuH-7
Description: (§1) The activity of the association of at least one flavonoid with synthetic chemotherapeutic agents (cyclophosphamide/methotrexate) and/or arctigenin, arctiin, berberine, berbamine, sanguinarine and chelerythrine (indicated with the term “Extracts” in the Tables) was studied in resistant cell lines of adenocarcinomas and carcinomas in comparison with chemosensitive tumour cell lines and line cells.
(§2) In particular, chemoresistant human tumour cells MDA-MB-231 (breast adenocarcinoma), ECV-304 (bladder carcinoma), HuH-7 (hepatocellular carcinoma) and HTB-43 (squamous cell carcinoma of the pharynx), chemosensitive tumour cells MCF-7 (breast adenocarcinoma) and non-tumoral healthy human mammal fibroblasts (HMF) were used.

[2] = system: HTB-43 (squamous cell carcinoma of the pharynx); test: cells; conditions: Homo sapiens, read-out: Cell viability (%) HTB-43
Description: as §1, §2

[3] = system: ECV-304 (bladder carcinoma); test: cells; conditions: Homo sapiens, ECV-304, read-out: Cell viability (%) ECV-304
Description: as §1, §2

[4] = system: MCF-7 (breast adenocarcinoma); test: Cell viability of chemosensitive MCF-7 cells (Table 1); conditions: Homo sapiens, MCF7, read-out: Cell viability (%) MCF-7
Description: as §1, §2

MDA-MB-231 cells = test: Cell viability of MDA-MB-231 cells after 7 days of treatment (Tables 7-9); type: cell-based, human
[5] = system: healthy human mammal fibroblasts (HMF); test: Cell viability of non-tumoral healthy fibroblasts HMF (Table 1); conditions: control = 100
Description: as §1, §2

[6] = system: MDA-MB-231 (breast adenocarcinoma); test: Cell viability of chemoresistant MDA-MB-231 cells (Tables 1, 2, 4)
Description: as §1, §2

in vitro = conditions: human
Description: as §1, §2

[7] = Homo sapiens, MDA-MB-231, read-out: Cell viability (%) MDA-MB-231

Work on O=P1(N(CCCl)CCCl)NCCCO1 (stereo not shown) [Cyclophosphamide, cyclophosphamide] yielded a viability at 0.85 µg/mL [1] of 58%, a viability at 0.85 µg/mL [2] of 36% and a viability at 0.85 µg/mL [3] of 70%. It also gave a viability at 0.85 µg/mL [4] of 6.9%, a viability at 1 µg/mL [4] of 7.5% and a viability at 1.3 µg/mL [4] of 8.6%. The viability at 40 µM (MDA-MB-231 cells; Homo sapiens, MDA-MB-231, 168 h, read-out: Cell viability % (MDA-MB-231, 7 days)) was 1.07 ± 0.22%, the “Cell viability (%) HMF” value ([5]; single agent at 850 ng/mL) was 54% and the “Cell viability (%) HMF” value ([5]; single agent at 1000 ng/mL) was 48%. For the same molecule, the “Cell viability (%) HMF” value ([5]; single agent at 1300 ng/mL) was 42%, the viability at 0.85 µg/mL [6, 7] was 96% and the viability at 1 µg/mL [6, 7] was 93%. For the same molecule, the viability at 1.3 µg/mL [6, 7] was 89%.
Molecule O=c1c(O)c(-c2ccc(O)c(O)c2)oc2cc(O)cc(O)c12 [Quercetin, quercetin] has a viability at 20 µM [6, 7] of 91%, a viability at 50 µM [6, 7] of 81% and a viability at 100 µM [6, 7] of 76%. For the same molecule, the “Synergistic effect in association with cyclophosphamide” value ([6]; MDA-MB-231 cells, alone or with cyclophosphamide 850 ng/mL) was “absence of synergistic effects”.
With C[C@@H]1O[C@@H](OC[C@H]2O[C@@H](Oc3c(-c4ccc(O)c(O)c4)oc4cc(O)cc(O)c4c3=O)[C@H](O)[C@@H](O)[C@@H]2O)[C@H](O)[C@H](O)[C@H]1O [Rutin, 2-(3,4-dihydroxyphenyl)-4,5-dihydroxy-3-{3,4,5-trihydroxy-6-[(3,4,5-trihydroxy-6-methyl-oxan-2-yl)oxymethyl}oxan-2-yl]oxy-chromen-7-one] the viability at 20 µM [4] was 8%, the viability at 50 µM [4] was 5% and the viability at 100 µM [4] was 4%. For the same molecule, the “Effect on cell viability of adding the flavonoid to cyclophosphamide 20 μM+methotrexate 2 μM” value (MDA-MB-231 cells; 20 μM of rutin, MDA-MB-231, 7 days) was “further reduces cell viability”, the “Effect on cell viability of adding the flavonoid to cyclophosphamide 40 μM+methotrexate 4 μM” value (MDA-MB-231 cells; rutin at 100 μM and 50 μM, MDA-MB-231, 7 days) was “no statistically relevant difference” and the viability at 20 µM (in vitro) was 92%. For the same molecule, the viability at 50 µM (in vitro) was 88%, the viability at 100 µM (in vitro) was 86% and the viability at 20 µM [6, 7] was 66%. For the same molecule, the viability at 50 µM [6, 7] was 58% and the viability at 100 µM [6, 7] was 51%.

Reference: patent US11096975B2, “Compositions for use in the treatment of tumors resistant to chemotherapy” (PROBIOTICAL S.P.A., priority 2015, dated 2021)
